How the values were obtained:
[1] = Thermogravimetric measurement (TG), 15% thermal weight loss temperature; type: physicochemical
[2] = Solubility in PGME, PGMEA, CPN and CHN at 23° C.
Method: Herein, the solubility in PGME and/or PGMEA, and/or CPN, and/or CHN is defined as “Mass of resin/(Mass of resin+Mass of solvent)×100 (% by mass)”.
The amount of each compound dissolved in 1-methoxy-2-propanol (PGME), propylene glycol monomethyl ether acetate (PGMEA), cyclopentanone (CPN), and cyclohexanone (CHN) was measured at 23° C., and the results were evaluated according to the following criteria.
Evaluation A: 10% by mass or more
Evaluation B: less than 10% by mass

[3] = cyclopentanone and cyclohexanone
[4] = 1-methoxy-2-propanol and propylene glycol monomethyl ether acetate

Molecule	15% thermal weight loss temperature [1] [°C]	solubility in CPN and CHN [2, 3] [% by mass]	solubility in CPN and CHN (Evaluation) [2, 3]	solubility in PGME and PGMEA [2, 4] [% by mass]	solubility in PGME and PGMEA (Evaluation) [2, 4]
c1ccc2c(c1)c1ccccc1c1c3ccccc3c3ccccc3c21 [DBC, dibenzo[g,p]chrysene]	≥ 400	≥ 10	A (10% by mass or more)		
tetraallyloxydibenzochrysene [TAODBC]				≥ 10	A (10% by mass or more)
